Data published in patent US20240376121A1, “COMPOUNDS AND USES THEREOF” (Foghorn Therapeutics Inc., priority 2021, published 2024).

Columns and labels:
[1] = target: T1, HiBit-BRM fusion protein (Homo sapiens, UniProt P51531); assay: HiBiT-BRM cell-based degradation assay (Nano-Glo HiBiT Lytic Detection); conditions: stable HeLa cell line expressing HiBiT-BRM, 24 h incubation; for BRM HiBit Degradation Maximum (%): top dose 30 μM; for DC50: read-out: BRM HiBit Degradation IC50
T1 construct: expressed in transfected cells
Method in brief: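 Luminescence from reconstituted NanoBiT luciferase in lysed HeLa HiBiT-BRM cells served as the measure of remaining BRM after 24 h treatment. Compounds were tested from 30 μM final downward in 3-fold steps. DMSO and 2 μM of a standard BRM/BRG1 degrader defined the scale limits.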

[2] = target: T2, HiBit-BRG1 fusion protein (Homo sapiens, UniProt P51532); assay: HiBiT-BRG1 cell-based degradation assay (Nano-Glo HiBiT Lytic Detection); conditions: stable HeLa cell line expressing HiBit-BRG1 and LgBit, 24 h incubation; for Dmax: top dose 30 μM, read-out: BRG1 HiBit Degradation Maximum (%); for DC50: read-out: BRMG1 HiBit Degradation IC50
T2 construct: expressed in transfected cells
Method in brief: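 HeLa cells stably expressing HiBiT-BRG1 and LgBiT treated 24 h with 10-point 3-fold dilutions (top 30 μM, duplicate). Luminescence read after Nano-Glo HiBiT lytic reagent; % degradation relative to DMSO (high control) and 2 μM reference BRM/BRG1 degrader (low control).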

T1 sequence (P51531 whole entry, the tested form may be a part): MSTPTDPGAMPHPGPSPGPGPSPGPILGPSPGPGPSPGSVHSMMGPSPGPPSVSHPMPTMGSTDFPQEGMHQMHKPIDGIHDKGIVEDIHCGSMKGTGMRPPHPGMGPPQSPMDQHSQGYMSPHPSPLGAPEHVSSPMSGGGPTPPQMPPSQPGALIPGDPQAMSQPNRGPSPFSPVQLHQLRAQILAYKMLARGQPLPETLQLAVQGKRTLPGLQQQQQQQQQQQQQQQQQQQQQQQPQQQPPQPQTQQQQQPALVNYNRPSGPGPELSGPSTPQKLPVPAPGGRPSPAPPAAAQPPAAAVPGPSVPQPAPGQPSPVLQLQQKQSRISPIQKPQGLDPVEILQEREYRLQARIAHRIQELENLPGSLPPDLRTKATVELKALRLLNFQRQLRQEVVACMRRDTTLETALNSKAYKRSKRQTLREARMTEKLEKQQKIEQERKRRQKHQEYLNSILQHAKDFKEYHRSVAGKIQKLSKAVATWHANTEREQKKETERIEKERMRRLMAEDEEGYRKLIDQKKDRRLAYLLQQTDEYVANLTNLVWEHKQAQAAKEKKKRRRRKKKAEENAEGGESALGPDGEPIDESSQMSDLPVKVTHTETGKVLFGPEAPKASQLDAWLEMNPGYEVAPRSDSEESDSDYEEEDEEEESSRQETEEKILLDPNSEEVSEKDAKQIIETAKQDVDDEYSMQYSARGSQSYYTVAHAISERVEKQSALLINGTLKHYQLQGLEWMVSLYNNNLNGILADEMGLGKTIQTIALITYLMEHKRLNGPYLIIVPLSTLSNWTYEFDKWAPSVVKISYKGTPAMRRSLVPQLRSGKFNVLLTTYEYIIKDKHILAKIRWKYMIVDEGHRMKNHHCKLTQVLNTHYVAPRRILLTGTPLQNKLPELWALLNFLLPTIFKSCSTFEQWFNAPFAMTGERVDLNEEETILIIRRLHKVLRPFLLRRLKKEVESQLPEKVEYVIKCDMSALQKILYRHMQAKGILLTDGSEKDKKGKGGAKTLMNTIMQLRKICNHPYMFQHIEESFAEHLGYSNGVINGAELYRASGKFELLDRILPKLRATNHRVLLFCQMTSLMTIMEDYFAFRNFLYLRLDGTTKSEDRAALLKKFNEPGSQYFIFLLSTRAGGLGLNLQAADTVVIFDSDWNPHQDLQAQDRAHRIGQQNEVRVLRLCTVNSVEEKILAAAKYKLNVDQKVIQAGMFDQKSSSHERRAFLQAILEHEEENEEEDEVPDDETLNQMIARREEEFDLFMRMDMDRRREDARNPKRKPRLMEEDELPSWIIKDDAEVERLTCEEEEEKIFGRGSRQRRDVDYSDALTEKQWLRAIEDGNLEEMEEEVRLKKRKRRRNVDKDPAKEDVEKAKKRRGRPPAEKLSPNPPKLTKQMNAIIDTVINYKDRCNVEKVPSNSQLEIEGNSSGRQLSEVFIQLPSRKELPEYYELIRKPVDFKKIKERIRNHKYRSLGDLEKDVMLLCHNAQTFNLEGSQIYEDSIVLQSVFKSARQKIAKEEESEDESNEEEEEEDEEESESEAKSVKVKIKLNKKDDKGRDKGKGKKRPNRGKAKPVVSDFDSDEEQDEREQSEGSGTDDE
T2 sequence (P51532 whole entry, the tested form may be a part): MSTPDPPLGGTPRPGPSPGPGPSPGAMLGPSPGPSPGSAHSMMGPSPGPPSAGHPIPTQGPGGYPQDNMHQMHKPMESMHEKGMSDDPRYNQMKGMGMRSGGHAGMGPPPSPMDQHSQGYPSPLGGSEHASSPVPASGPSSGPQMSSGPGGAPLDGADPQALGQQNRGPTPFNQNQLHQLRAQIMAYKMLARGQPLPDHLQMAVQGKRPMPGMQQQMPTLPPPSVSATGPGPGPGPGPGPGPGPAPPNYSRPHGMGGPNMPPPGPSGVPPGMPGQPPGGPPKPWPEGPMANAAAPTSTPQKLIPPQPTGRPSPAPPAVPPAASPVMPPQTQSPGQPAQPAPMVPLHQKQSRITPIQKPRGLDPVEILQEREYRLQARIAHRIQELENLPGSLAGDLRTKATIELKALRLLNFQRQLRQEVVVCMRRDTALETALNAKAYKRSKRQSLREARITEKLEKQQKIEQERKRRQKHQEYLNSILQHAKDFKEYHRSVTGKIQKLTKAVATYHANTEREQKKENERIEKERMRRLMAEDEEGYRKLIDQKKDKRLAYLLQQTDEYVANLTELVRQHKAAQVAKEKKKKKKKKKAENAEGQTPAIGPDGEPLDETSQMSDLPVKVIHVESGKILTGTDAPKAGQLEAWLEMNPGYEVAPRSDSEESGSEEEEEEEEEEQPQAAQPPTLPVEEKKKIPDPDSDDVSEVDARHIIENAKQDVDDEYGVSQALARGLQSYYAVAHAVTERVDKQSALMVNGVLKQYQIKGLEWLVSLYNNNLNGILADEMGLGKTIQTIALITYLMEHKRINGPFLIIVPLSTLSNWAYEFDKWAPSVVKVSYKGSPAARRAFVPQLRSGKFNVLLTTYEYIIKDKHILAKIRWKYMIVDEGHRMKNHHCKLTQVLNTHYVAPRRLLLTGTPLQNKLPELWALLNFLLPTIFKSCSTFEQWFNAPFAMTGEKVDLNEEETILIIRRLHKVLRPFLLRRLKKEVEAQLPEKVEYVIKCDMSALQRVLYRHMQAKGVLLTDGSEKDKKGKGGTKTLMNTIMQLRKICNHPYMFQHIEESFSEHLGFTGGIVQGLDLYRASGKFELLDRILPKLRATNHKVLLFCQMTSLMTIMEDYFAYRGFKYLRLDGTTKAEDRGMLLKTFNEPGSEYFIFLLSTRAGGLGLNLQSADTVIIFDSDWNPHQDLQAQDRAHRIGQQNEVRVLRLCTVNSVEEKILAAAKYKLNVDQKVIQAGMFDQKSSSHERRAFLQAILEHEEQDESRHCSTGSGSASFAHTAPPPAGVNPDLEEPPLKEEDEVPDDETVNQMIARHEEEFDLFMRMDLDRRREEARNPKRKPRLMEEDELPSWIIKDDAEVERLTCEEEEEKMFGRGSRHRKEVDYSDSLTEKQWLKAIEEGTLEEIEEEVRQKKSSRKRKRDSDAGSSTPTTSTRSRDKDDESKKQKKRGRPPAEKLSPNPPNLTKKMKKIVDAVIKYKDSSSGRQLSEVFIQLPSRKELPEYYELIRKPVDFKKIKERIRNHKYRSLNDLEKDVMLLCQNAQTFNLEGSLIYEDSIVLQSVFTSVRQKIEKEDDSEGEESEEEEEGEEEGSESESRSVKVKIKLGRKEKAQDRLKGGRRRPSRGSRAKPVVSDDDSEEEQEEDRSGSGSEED

DC50 [1] | Dmax [2] | DC50 [2] | Structure (SMILES) | BRM HiBit Degradation Maximum (%) [1]
≥ 10 nM | < 50% | ≥ 1000 nM | Cc1ncsc1-c1ccc([C@H](C)NC(=O)[C@@H]2C[C@@H](O)CN2C(=O)[C@@H](NC(=O)c2cnc(N3CCC(c4sc5nnc(-c6ccccc6O)cc5c4C)CC3)nc2)C(C)(C)C)cc1 [Compound 65, N-((S)-1-((2S,4R)-4-hydroxy-2-(((S)-1-(4-(4-methylthiazol-5-yl)phenyl)ethyl)carbamoyl)pyrrolidin-1-yl)-3,3-dimethyl-1-oxobutan-2-yl)-2-(4-(3-(2-hydroxyphenyl)-5-methylthieno[2,3-c]pyridazin-6-yl)piperidin-1-yl)pyrimidine-5-carboxamide] | A (“A” indicates maximum degradation ≥ 75%)
< 10 nM | ≥ 75% | ≥ 10 nM | Cc1ncsc1-c1ccc([C@H](C)NC(=O)[C@@H]2C[C@@H](O)CN2C(=O)[C@@H](c2cc(OCCN3CCN(c4sc5nnc(-c6ccccc6O)cc5c4C)CC3)no2)C(C)C)cc1 [Compound 66, (2S,4R)-4-hydroxy-1-((R)-2-(3-(2-(4-(3-(2-hydroxyphenyl)-5-methylthieno[2,3-c]pyridazin-6-yl)piperazin-1-yl)ethoxy)isoxazol-5-yl)-3-methylbutanoyl)-N-((S)-1-(4-(4-methylthiazol-5-yl)phenyl)ethyl)pyrrolidine-2-carboxamide] | A (“A” indicates maximum degradation ≥ 75%)
≥ 100 nM | < 50% | ≥ 1000 nM | Cc1ncsc1-c1ccc([C@H](C)NC(=O)[C@@H]2C[C@@H](O)CN2C(=O)[C@@H](c2cc(OCCN3CC4CC3CC4c3cc4cc(-c5ccccc5O)nnc4s3)no2)C(C)C)cc1 (stereo partly drawn) [Compound 67, (2S,4R)-4-hydroxy-1-((2R)-2-(3-(2-(5-(3-(2-hydroxyphenyl)thieno[2,3-c]pyridazin-6-yl)-2-azabicyclo[2.2.1]heptan-2-yl)ethoxy)isoxazol-5-yl)-3-methylbutanoyl)-N-((S)-1-(4-(4-methylthiazol-5-yl)phenyl)ethyl)pyrrolidine-2-carboxamide] | A (“A” indicates maximum degradation ≥ 75%)
≥ 100 nM | < 50% | ≥ 1000 nM | Cc1ncsc1-c1ccc([C@H](C)NC(=O)[C@@H]2C[C@@H](O)CN2C(=O)[C@@H](c2cc(OCCN3CCC(c4sc5nnc(-c6ccccc6O)cc5c4F)CC3)no2)C(C)C)cc1 [Compound 68, (2S,4R)-1-((R)-2-(3-(2-(4-(5-fluoro-3-(2-hydroxyphenyl)thieno[2,3-c]pyridazin-6-yl)piperidin-1-yl)ethoxy)isoxazol-5-yl)-3-methylbutanoyl)-4-hydroxy-N-((S)-1-(4-(4-methylthiazol-5-yl)phenyl)ethyl)pyrrolidine-2-carboxamide] | B (“B” indicates maximum degradation ≥ 50%)
≥ 1000 nM | < 50% | ≥ 1000 nM | Cc1ncsc1-c1ccc([C@H](C)NC(=O)[C@@H]2C[C@@H](O)CN2C(=O)[C@@H](c2cc(OCCCN3CCc4sc5nnc(-c6ccccc6O)cc5c4C3)no2)C(C)C)cc1 [Compound 69, (2S,4R)-4-hydroxy-1-((R)-2-(3-(3-(3-(2-hydroxyphenyl)-7,8-dihydropyrido[3′,4′:4,5]thieno[2,3-c]pyridazin-6(5H)-yl)propoxy)isoxazol-5-yl)-3-methylbutanoyl)-N-((S)-1-(4-(4-methylthiazol-5-yl)phenyl)ethyl)pyrrolidine-2-carboxamide] | C (“C” indicates maximum degradation < 50%)
≥ 1000 nM | < 50% | ≥ 1000 nM | Cc1ncsc1-c1ccc([C@H](C)NC(=O)[C@@H]2C[C@@H](O)CN2C(=O)[C@@H](c2cc(N3CCC(N4CCc5sc6nnc(-c7ccccc7O)cc6c5C4)CC3)no2)C(C)C)cc1 [Compound 70, (2S,4R)-4-hydroxy-1-((R)-2-(3-(4-(3-(2-hydroxyphenyl)-7,8-dihydropyrido[3′,4′:4,5]thieno[2,3-c]pyridazin-6(5H)-yl)piperidin-1-yl)isoxazol-5-yl)-3-methylbutanoyl)-N-((S)-1-(4-(4-methylthiazol-5-yl)phenyl)ethyl)pyrrolidine-2-carboxamide] | C (“C” indicates maximum degradation < 50%)
< 10 nM | ≥ 75% | ≥ 10 nM | Cc1ncsc1-c1ccc([C@H](C)NC(=O)[C@@H]2C[C@@H](O)CN2C(=O)[C@@H](c2cc(C34CC(CN5CCC(c6sc7nnc(-c8ccccc8O)cc7c6C)CC5)(C3)C4)no2)C(C)C)cc1 [Compound 72, (2S,4R)-4-hydroxy-1-[(2R)-2-{3-[3-({4-[3-(2-hydroxyphenyl)-5-methylthieno[2,3-c]pyridazin-6-yl]piperidin-1-yl}methyl)bicyclo[1.1.1]pentan-1-yl]-1,2-oxazol-5-yl}-3-methylbutanoyl]-N-[(1S)-1-[4-(4-methyl-1,3-thiazol-5-yl)phenyl]ethyl]pyrrolidine-2-carboxamide] | A (“A” indicates maximum degradation ≥ 75%)
≥ 1000 nM | < 50% | ≥ 1000 nM | Cc1ncsc1-c1ccc(CNC(=O)[C@@H]2C[C@@H](O)CN2C(=O)[C@@H](NC(=O)C2(F)CC2)C(C)(C)C)c(OCC(=O)N2CCC(c3cc4nnc(-c5ccccc5O)cc4s3)CC2)c1 [Compound 75, (2S,4R)-1-((S)-2-(1-fluorocyclopropane-1-carboxamido)-3,3-dimethylbutanoyl)-4-hydroxy-N-(2-(2-(4-(3-(2-hydroxyphenyl)thieno[3,2-c]pyridazin-6-yl)piperidin-1-yl)-2-oxoethoxy)-4-(4-methylthiazol-5-yl)benzyl)pyrrolidine-2-carboxamide] | C (“C” indicates maximum degradation < 50%)
≥ 10 nM | < 50% | ≥ 100 nM | Cc1ncsc1-c1ccc(CNC(=O)[C@@H]2C[C@@H](O)CN2C(=O)[C@@H](NC(=O)C2(F)CC2)C(C)(C)C)c(OCCCN2CCC(c3cc4nnc(-c5ccccc5O)cc4s3)CC2)c1 [Compound 76, (2S,4R)-1-((S)-2-(1-fluorocyclopropane-1-carboxamido)-3,3-dimethylbutanoyl)-4-hydroxy-N-(2-(3-(4-(3-(2-hydroxyphenyl)thieno[3,2-c]pyridazin-6-yl)piperidin-1-yl)propoxy)-4-(4-methylthiazol-5-yl)benzyl)pyrrolidine-2-carboxamide] | B (“B” indicates maximum degradation ≥ 50%)
≥ 1000 nM | < 50% | ≥ 1000 nM | Cc1ncsc1-c1ccc(CNC(=O)[C@@H]2C[C@@H](O)CN2C(=O)[C@@H](NC(=O)C2(F)CC2)C(C)(C)C)c(OCCN2CCC(c3cc4nnc(-c5ccccc5O)cc4s3)CC2)c1 [Compound 77, (2S,4R)-1-((S)-2-(1-fluorocyclopropane-1-carboxamido)-3,3-dimethylbutanoyl)-4-hydroxy-N-(2-(2-(4-(3-(2-hydroxyphenyl)thieno[3,2-c]pyridazin-6-yl)piperidin-1-yl)ethoxy)-4-(4-methylthiazol-5-yl)benzyl)pyrrolidine-2-carboxamide] | C (“C” indicates maximum degradation < 50%)

Structure (SMILES) | DC50 [1] | Dmax [2] | DC50 [2] | BRM HiBit Degradation Maximum (%) [1]
Cc1ncsc1-c1ccc([C@H](C)NC(=O)[C@@H]2C[C@@H](O)CN2C(=O)[C@@H](c2cc(OCCN3C[C@H]4C[C@@H](C3)[C@@H]4c3cc4cc(-c5ccccc5O)nnc4s3)no2)C(C)C)cc1 [Compound 71, (2S,4R)-4-hydroxy-N-[(1S)-1-[4-(4-methyl-1,3-thiazol-5-yl)phenyl]ethyl]-1-[(2R)-3-methyl-2-(3-{2-[(1R,5S,6r)-6-[3-(2-hydroxyphenyl)thieno[2,3-c]pyridazin-6-yl]-3-azabicyclo[3.1.1]heptan-3-yl]ethoxy}-1,2-oxazol-5-yl)butanoyl]pyrrolidine-2-carboxamide] | ≥ 10 nM | < 50% | ≥ 1000 nM | A (“A” indicates maximum degradation ≥ 75%)
Cc1ncsc1-c1ccc([C@H](C)NC(=O)[C@@H]2C[C@@H](O)CN2C(=O)[C@@H](c2cc(OCCN3CCC(O)(c4cc5nnc(-c6ccccc6O)cc5s4)CC3)no2)C(C)C)cc1 [Compound 73, (2S,4R)-4-hydroxy-1-((R)-2-(3-(2-(4-hydroxy-4-(3-(2-hydroxyphenyl)thieno[3,2-c]pyridazin-6-yl)piperidin-1-yl)ethoxy)isoxazol-5-yl)-3-methylbutanoyl)-N-((S)-1-(4-(4-methylthiazol-5-yl)phenyl)ethyl)pyrrolidine-2-carboxamide] | ≥ 10 nM | < 50% | ≥ 1000 nM | A (“A” indicates maximum degradation ≥ 75%)
Cc1ncsc1-c1ccc([C@H](C)NC(=O)[C@@H]2C[C@@H](O)CN2C(=O)[C@@H](c2cc(OCCN3C[C@H]4C[C@@H](C3)[C@H]4c3cc4cc(-c5ccccc5O)nnc4s3)no2)C(C)C)cc1 [Compound 74, (2S,4R)-4-hydroxy-1-((R)-2-(3-(2-((1R,5S,6S)-6-(3-(2-hydroxyphenyl)thieno[2,3-c]pyridazin-6-yl)-3-azabicyclo[3.1.1]heptan-3-yl)ethoxy)isoxazol-5-yl)-3-methylbutanoyl)-N-((S)-1-(4-(4-methylthiazol-5-yl)phenyl)ethyl)pyrrolidine-2-carboxamide] | ≥ 1000 nM | < 50% | ≥ 1000 nM | C (“C” indicates maximum degradation < 50%)
